Molecular target: T1, chimeric estrogen receptor containing hERαLBD and LexA DBD (Homo sapiens, UniProt P03372)
T1 construct: expressed in transfected cells; host or cells: transgenic Arabidopsis thaliana (Columbia), Agrobacterium C58-mediated transformation, CaMV 35S promoter
Type: in vivo
Conditions: T2 seeds on MS agar medium, grown for a week; FIG. 6
Experimental: Seeds of T3 were sown on a MS agar medium containing 17β-estradiol (WAKO Pure Chemical Inds.). The expression of GUS gene was examined by GUS activity staining method and GUS activity assay method by the use of a transformed plant grown for a week.
The induction of reporter gene expression by estrogen in transformed Arabidopsis thaliana was performed by the following procedures. […] After that the transformed Arabidopsis thaliana was sprouted and grown in a bright place at 22° C. for specified days for the continuous exposure to estrogen.
The Gus activity assay method was performed in the following way. […] Twenty plants treated with estrogen were frozen in liquid nitrogen and were crushed into powder by a homogenizer. Then, the extraction buffer (50 mM NaH2PO4, 10 mM EDTA, 0.1% Triton-X-100, 0.1% N-sodium lauroyl sarcosinate, 10 mM β-mercaptoethanol) was added and soluble protein was extracted. 4-methylumbelliferyl-β-D-glucronide (4-MUG) was used for a substrate of GUS activity assay. The extracted protein solution was added with extraction buffer containing final 1 mM 4-MUG and was reacted at 37° C. for 1 hr. […] Also, protein concentration in the solution was measured and measured values obtained by fluorescent spectroscopy were standardized by the correction depending on the total protein in the protein solution. […]

T1 sequence (P0A7C2 1-87, change not shown): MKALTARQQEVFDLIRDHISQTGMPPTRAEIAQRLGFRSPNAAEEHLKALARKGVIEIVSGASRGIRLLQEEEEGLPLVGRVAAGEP
T1 sequence (P03372 311-547, change not shown): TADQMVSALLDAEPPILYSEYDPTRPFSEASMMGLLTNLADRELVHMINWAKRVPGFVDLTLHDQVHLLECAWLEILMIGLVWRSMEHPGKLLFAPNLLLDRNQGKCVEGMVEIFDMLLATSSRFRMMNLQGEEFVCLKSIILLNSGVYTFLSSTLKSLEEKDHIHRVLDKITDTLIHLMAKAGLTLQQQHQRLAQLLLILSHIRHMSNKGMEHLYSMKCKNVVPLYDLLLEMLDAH
T1 sequence (Q15596 624-869, change not shown, further chain): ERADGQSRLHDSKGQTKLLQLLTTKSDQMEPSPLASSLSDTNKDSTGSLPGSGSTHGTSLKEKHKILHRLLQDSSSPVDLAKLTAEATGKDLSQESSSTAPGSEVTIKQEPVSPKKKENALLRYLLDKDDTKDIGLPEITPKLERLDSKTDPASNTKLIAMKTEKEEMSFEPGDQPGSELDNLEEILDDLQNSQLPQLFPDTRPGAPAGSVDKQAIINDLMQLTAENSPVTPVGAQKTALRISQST
T1 sequence (P06492 413-490, change not shown, further chain): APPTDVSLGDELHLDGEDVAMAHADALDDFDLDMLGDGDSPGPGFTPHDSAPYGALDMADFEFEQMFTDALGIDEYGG

## CC(C)(c1ccc(O)cc1)c1ccc(O)cc1 [BPA, bisphenol A]
  concentration from which expression of GUS gene responds / increases: > 100 nM
  optimal concentration for the expression of GUS gene: 100 nM
